The results in this text go back to ChEMBL document CHEMBL1133765, “QSAR model for drug human oral bioavailability” (J Med Chem, 2000).

Data set [1] is described as follows: clinical. The conditions noted are these: human, in vivo, po.
Data set [2] in a line: physchem.
Data set [3] can be described thus: physchem. The conditions noted are these: octanol/water, pH 6.5.
For data set [4] the following is noted: octanol/water.
For data set [5] the following is noted: octanol/water. This is another data set of the same source.
A short description of data set [6]: clinical. The settings on record: human, in vivo, po. The source holds these as a separate data set.
The conditions of data set [7]: octanol/water. The source holds these as a separate data set.
Data set [8] is described as follows: clinical. The conditions noted are these: human, in vivo, po. The source holds these as a separate data set.
The conditions of data set [9]: octanol/water. This is another data set of the same source.

For the compound `CCCC(=O)Nc1ccc(OCC(O)CNC(C)C)c(C(C)=O)c1` (stereo not drawn) [ACEBUTOLOL], the bioavailability in [1] worked out at 49%.
`CC[C@H]1[C@@H]2C[C@H]3[C@@H]4N(C)c5ccccc5[C@]45C[C@@H]([C@@H]2[C@H]5O)N3[C@@H]1O` [AJMALINE] came in with a pKa in data set [2] of 6.5. This compound also showed a logD in data set [3] of 2.42. In addition, the bioavailability in data set [1] was determined as 49%. Moreover, in data set [4], the “delta logD” value is recorded as -0.25.
As for `CC(C)(C)NCC(O)c1ccc(O)c(CO)c1` (stereo not drawn) [ALBUTEROL], in data set [3], the logD is -2.69. The compound also registered a bioavailability in data set [1] of 49%. The “delta logD” value in data set [4] was -0.9.
`CC(C)NCC(O)COc1ccc(CCOCC2CC2)cc1` (stereo not drawn) [BETAXOLOL] yielded a pKa in data set [2] of 9.4. Also, the logD in data set [5] (pH 6.5) was -0.07. The same compound came in with a bioavailability in [6] (F) greater than 80%. Further, the “delta logD” value in data set [7] was -0.9.
With `COc1ccccc1OCCNCC(O)COc1cccc2[nH]c3ccccc3c12` (stereo not drawn) [CARVEDILOL], the pKa in data set [2] is 9.3. In [3], the logD is 1.31. In addition, the bioavailability in data set [1] came to 49%. Besides, the “delta logD” value in data set [4] was -0.9.
In turn, `O=C(O)CCCc1ccc(N(CCCl)CCCl)cc1` [CHLORAMBUCIL] registered a logD in [5] of 2.29. In addition, the bioavailability in [6] was greater than 80%. Also, the “delta logD” value in data set [7] is 0.82.
`NS(=O)(=O)c1cc2c(cc1Cl)N=CNS2(=O)=O` [CHLOROTHIAZIDE]: the pKa in [2] stood at 6.7. The logD in data set [3] is -0.45. This compound also came in with a bioavailability in data set [1] of 49%. Also, in data set [4], the “delta logD” value worked out at 0.57.
In the case of `COc1cc(N)c(Cl)cc1C(=O)NC1CCN(CCCOc2ccc(F)cc2)CC1OC` (stereo not drawn) [CISAPRIDE], the pKa in data set [2] was 7.7. Moreover, the logD in data set [3] came to 1.79. This compound displayed a bioavailability in data set [1] of 49%. Further, the “delta logD” value in data set [4] is -0.75.
The like results for `CN1CCC[C@@H]1CCO[C@](C)(c1ccccc1)c1ccc(Cl)cc1` [CLEMASTINE] were, in that order, 9.2, 1.65, 49% and -0.89.
Turning to `COc1ccc2c3c1O[C@H]1[C@@H](O)C=C[C@H]4[C@@H](C2)N(C)CC[C@@]341` [CODEINE], the logD in [5] was -0.28. In data set [6], this compound registered a bioavailability of 79%. For the same compound, the “delta logD” value in [7] is recorded as -0.8.
On to `COc1ccc([C@@H]2Sc3ccccc3N(CCN(C)C)C(=O)[C@@H]2OC(C)=O)cc1` [DILTIAZEM], for which, in [3], the logD stood at 1.47. The bioavailability in data set [1] was 49%. Moreover, the “delta logD” value in [4] is listed as -0.75.
In turn, `CCC(C)(C)NCC(O)COc1ccccc1C(=O)CCc1ccccc1` (stereo not drawn) [DIPRAFENONE] gave a pKa in [2] of 9.2. In data set [3], this compound gave a log distribution coefficient (logD) of 0.59. In data set [1], the bioavailability stood at 49%. Further, the “delta logD” value in [4] was -0.89.
The like results for `CN(C)CCC=C1c2ccccc2COc2ccccc21` [DOXEPIN] were, in that order, 8, 1.55, 49% and -0.82.
As to `COc1ccc(C(=O)Nc2ccccc2CCC2CCCCN2C)cc1` (stereo not drawn) [ENCAINIDE], the pKa in data set [2] came out at 10.2. Also, the logD in data set [3] was -0.34. The bioavailability in data set [1] came out at 49%. Moreover, in [4], the “delta logD” value is listed as -0.9.
`CC[C@@H](CO)NCCN[C@@H](CC)CO` [ETHAMBUTOL]: the bioavailability in [8] stood at 79%. In data set [2], this compound returned a pKa of 9.5. Besides, the logD in data set [9] is given as -4.02. For the same compound, the “delta logD” value in data set [4] was -0.9.
As to `NC(N)=Nc1nc(CSCCC(N)=NS(N)(=O)=O)cs1` [FAMOTIDINE], the pKa in [2] was 7.1. The same compound yielded a logD in data set [3] of -1.27. The compound further registered a bioavailability in data set [1] of 49%. The “delta logD” value in [4] is on record as -0.52.
The corresponding values for `CC(C)n1c(/C=C/C(O)CC(O)CC(=O)O)c(-c2ccc(F)cc2)c2ccccc21` (stereo not drawn) [FLUVASTATIN] are 4.5, 1.42, 49% and 0.9.
Consider `CN(C)CCCN1c2ccccc2CCc2ccccc21` [IMIPRAMINE], for which the bioavailability in [1] was determined as 49%.
Take `O=C(NC1CCN(CCc2c[nH]c3ccccc23)CC1)c1ccccc1` [INDORAMIN]: in data set [2], the pKa is 7.7. In data set [3], this compound yielded a logD of 1.56. Also, in data set [1], the bioavailability came to 49%. Also, in [4], the “delta logD” value is listed as -0.75.
In data set [2], `CC(CCc1ccccc1)NCC(O)c1ccc(O)c(C(N)=O)c1` (stereo not drawn) [LABETALOL] yielded a pKa of 9.3. The compound further registered a logD in data set [3] of 0.35. For the same compound, in data set [1], the bioavailability was determined as 49%. Further, the “delta logD” value in data set [4] was -0.9.
On to `CN(Cc1cnc2nc(N)nc(N)c2n1)c1ccc(C(=O)N[C@@H](CCC(=O)O)C(=O)O)cc1` [METHOTREXATE], for which the bioavailability in [8] was 79%. For the same compound, the logD in data set [9] was -4.55. For the same compound, the “delta logD” value in data set [4] was 0.9.
The compound `Cc1ncc2n1-c1ccc(Cl)cc1C(c1ccccc1F)=NC2` [MIDAZOLAM] returned a pKa in data set [2] of 6.1. In [3], this compound had a logD of 1.37. In addition, the bioavailability in data set [1] worked out at 49%. The “delta logD” value in data set [4] is -0.14.
The like results for `CCOC(=O)Nc1ccc2c(c1)N(C(=O)CCN1CCOCC1)c1ccccc1S2` [MORICIZINE] were, in that order, 6.4, 2.73, 49% and -0.21.
As for `CC(C)(C)NCC(O)COc1cccc2c1CC(O)C(O)C2` (stereo not drawn) [NADOLOL], the pKa in data set [2] was determined as 9.7. Also, in [9], the logD is given as -2.46. The compound also came in with a bioavailability in data set [1] of 49%. Moreover, the “delta logD” value in [4] is -0.9.
For `CCOc1ccc2ccccc2c1C(=O)N[C@@H]1C(=O)N2[C@@H]1SC(C)(C)[C@@H]2C(=O)O` [NAFCILLIN], the log distribution coefficient (logD) in data set [3] was -0.84. The same compound returned a bioavailability in [1] of 49%. In data set [4], the “delta logD” value stood at 0.9.
Consider `CN1CCC[C@H]1c1cccnc1` [NICOTINE], for which, in data set [3], the logD is -0.34. Also, the bioavailability in [1] was determined as 49%. Further, in [4], the “delta logD” value was -0.82.
Compound `CCOC(=O)C1=C(C)NC(C)=C(C(=O)OC)C1c1cccc([N+](=O)[O-])c1` (stereo not drawn) [NITRENDIPINE] had a logD in [5] of 0.97. Moreover, the bioavailability in data set [6] (F) is less than 20%. Also, the “delta logD” value in data set [7] amounted to 0.
On to `Cc1onc(-c2ccccc2)c1C(=O)N[C@@H]1C(=O)N2[C@@H]1SC(C)(C)[C@@H]2C(=O)O` [OXACILLIN], for which, in data set [3], the logD was -1.32. The compound further yielded a bioavailability in data set [1] of 49%. The “delta logD” value in data set [4] is recorded as 0.9.
`C=CCOc1ccccc1OCC(O)CNC(C)C` (stereo not drawn) [OXPRENOLOL] displayed a pKa in data set [2] of 9.3. Also, the pH-dependent lipophilicity (logD) in data set [9] (pH 6.5) is reported as -0.72. This compound also registered a bioavailability in data set [1] of 49%. Also, the “delta logD” value in data set [4] is on record as -0.9.
Take `Fc1ccc([C@@H]2CCNC[C@H]2COc2ccc3c(c2)OCO3)cc1` [PAROXETINE]: the bioavailability in [8] is 79%. In [2], the pKa was 11.2. The compound further registered a logD in data set [3] of -1.96. Moreover, in data set [4], the “delta logD” value was -0.9.
`OCCN1CCN(CCCN2c3ccccc3Sc3ccc(Cl)cc32)CC1` [PERPHENAZINE] yielded a bioavailability in data set [8] of 79%. Further, the logD in data set [9] is listed as 2.88. The “delta logD” value in [4] is reported as -0.77.
As for `CN1CCN(CC(=O)N2c3ccccc3C(=O)Nc3cccnc32)CC1` [PIRENZEPINE], the pKa in data set [2] was 8.1. This compound registered a log distribution coefficient (logD) in data set [9] of -1.51. The bioavailability in [1] stood at 49%. The “delta logD” value in data set [4] is on record as -0.83.
As for `CC(C)NC[C@H](O)COc1ccc(O)cc1` [PRENALTEROL], in [2], the pKa was 9.2. Further, the log distribution coefficient (logD) in [3] is -1.61. In data set [1], this compound came in with a bioavailability of 49%. Moreover, the “delta logD” value in data set [4] is listed as -0.89.
Turning to `CC(CN1c2ccccc2Sc2ccccc21)N(C)C` (stereo not drawn) [PROMETHAZINE], the logD in data set [3] was found to be 2.21. In data set [1], the bioavailability came to 49%. In addition, the “delta logD” value in data set [4] is given as -0.89.
The like results for `CCC(=O)O[C@](Cc1ccccc1)(c1ccccc1)[C@H](C)CN(C)C` [PROPOXYPHENE] were, in that order, 2.2, 49% and -0.89.
Compound `CC(C)NCC(O)COc1cccc2ccccc12` (stereo not drawn) [PROPRANOLOL] came in with a bioavailability in data set [1] of 49%. The “delta logD” value in data set [4] is listed as -0.9.
In turn, `O=C(c1ccc(OCCN2CCCCC2)cc1)c1c(-c2ccc(O)cc2)sc2cc(O)ccc12` [RALOXIFENE] displayed a pKa in data set [2] of 9. In data set [5] (pH 6.5), this compound had a pH-dependent lipophilicity (logD) of 1.08. Moreover, the bioavailability in [6] (F) is less than 20%. Further, the “delta logD” value in data set [7] is listed as -0.9.
The compound `CNC(=C[N+](=O)[O-])NCCSCc1ccc(CN(C)C)o1` [RANITIDINE] yielded a logD in [5] (pH 6.5) of -1.44. Further, the bioavailability in data set [6] (F) is 79%. For the same compound, in [7], the “delta logD” value was -0.84.
The compound `CC(NCCc1ccc(O)cc1)C(O)c1ccc(O)cc1` (stereo not drawn) [RITODRINE] came in with a log distribution coefficient (logD) in [3] of -1. For the same compound, the bioavailability in data set [1] was found to be 49%. Moreover, the “delta logD” value in data set [4] was -0.89.
The like results for `CSc1ccc2c(c1)N(CCC1CCCCN1C)c1ccccc1S2` (stereo not drawn) [THIORIDAZINE] were, in that order, 2.9, 49% and -0.9.
Consider `CC(C)(C)NC[C@H](O)COc1nsnc1N1CCOCC1` [TIMOLOL], for which the bioavailability in [8] amounted to 79%. In addition, in data set [2], the pKa turned out to be 9.3. In addition, the logD in [3] is -0.99. Besides, the “delta logD” value in data set [4] was -0.9.
The like results for `COc1cccc(C2(O)CCCCC2CN(C)C)c1` (stereo not drawn) [TRAMADOL] were, in that order, 79%, 9.4, 0.85 and -0.9.
The corresponding values for `C[C@H](CS)C(=O)N1C[C@@H](Sc2ccccc2)C[C@H]1C(=O)O` [ZOFENOPRILAT] are 79%, 3.7, -0.64 and 0.9.
`OCCN1CCN(CC/C=C2/c3ccccc3Sc3ccc(Cl)cc32)CC1` [ZUCLOPENTHIXOL] displayed a bioavailability in data set [8] of 79%. The pKa in [2] stood at 8.1. This compound also displayed a logD in [3] of 2.71. Also, the “delta logD” value in data set [4] is reported as -0.83.
